# Assay results as given in patent US12428415B2, “Matriptase 2 inhibitors and uses thereof” (Disc Medicine, Inc., priority 2018, dated 2025).
# Like-named read-outs stand apart in the source and are kept apart here.
# Biological target: T1, Human Recombinant Matriptase 2 (Homo sapiens, UniProt Q8IU80)
# T1 construct: purchased Enzo Life Sciences (an in-house preparation was also used) ALX-201-752-1
# T1 sequence (Q8IU80 1-811): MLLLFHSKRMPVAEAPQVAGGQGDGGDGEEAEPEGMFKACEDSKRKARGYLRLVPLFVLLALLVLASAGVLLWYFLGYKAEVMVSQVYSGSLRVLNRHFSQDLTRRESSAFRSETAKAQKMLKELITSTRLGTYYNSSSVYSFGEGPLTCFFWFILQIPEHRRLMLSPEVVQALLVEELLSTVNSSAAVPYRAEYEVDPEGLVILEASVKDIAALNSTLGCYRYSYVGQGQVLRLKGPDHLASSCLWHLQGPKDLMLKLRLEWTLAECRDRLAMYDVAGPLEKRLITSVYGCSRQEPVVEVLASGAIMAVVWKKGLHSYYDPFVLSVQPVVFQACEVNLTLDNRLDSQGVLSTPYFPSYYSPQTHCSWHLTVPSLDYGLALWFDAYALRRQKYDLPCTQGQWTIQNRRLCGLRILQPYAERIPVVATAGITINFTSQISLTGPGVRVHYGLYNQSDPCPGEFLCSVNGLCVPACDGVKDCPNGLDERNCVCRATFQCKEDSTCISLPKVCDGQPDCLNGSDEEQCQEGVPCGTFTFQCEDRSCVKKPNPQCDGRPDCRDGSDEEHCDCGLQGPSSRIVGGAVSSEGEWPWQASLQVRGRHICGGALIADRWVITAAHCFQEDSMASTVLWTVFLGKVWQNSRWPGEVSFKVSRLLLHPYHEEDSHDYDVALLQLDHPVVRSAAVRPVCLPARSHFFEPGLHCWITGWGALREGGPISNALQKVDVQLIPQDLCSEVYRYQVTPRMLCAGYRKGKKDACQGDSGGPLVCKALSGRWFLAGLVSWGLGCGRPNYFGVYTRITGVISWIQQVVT
# Assay: Matriptase 2 fluorescence based inhibition assay, Method B (50 mM TRIS pH 7.5, 150 mM NaCl, 0.01% gelatin)
# Type: biochemical
# Conditions: for inhibition at 1 µM: read-out: Mar-2 % inhibition at 1 uM
# In short: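 Fluorogenic substrate Boc-Gln-Ala-Arg-7-amido-4-methylcoumarin (100 μM) cleavage read at Ex 360/Em 480 nm 60 min after addition, following 30 min enzyme–compound preincubation at 25° C. Enzyme was 7 nM commercial or 15 nM in-house; DMSO 1%. IC50s fitted by non-linear sigmoidal regression.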
# [1] = 1 uM compound, Assay Used = B (Method B)
SMILES,"inhibition at 1 µM (1 uM compound, Assay Used = B) [%]",inhibition at 1 µM [1] [%],further results
"N=C(N)c1ccc2cc(C(=O)Nc3ncccn3)n(Cc3cccc4ccccc34)c2c1 [Compound I-573, 6-carbamimidoyl-1-(naphthalen-1-ylmethyl)-N-(pyrimidin-2-yl)-1H-indole-2-carboxamide]",50 to 75,,
COc1ccnc(Oc2cc(Cn3c(C(=O)O)cc4ccc(C(=N)N)cc43)c3ccccc3c2)n1 [Compound I-574],25 to 50,,
CN(C)C(=O)Sc1cc(Cn2c(C(=O)O)cc3ccc(C(=N)N)cc32)c2ccccc2c1 [Compound I-575],0 to 25,,
N=C(NC(=O)Oc1ccccc1)c1ccc2cc(C(=O)OCc3ccccc3)n(Cc3cc(Oc4ncccn4)cc4ccccc34)c2c1 [Compound I-576],,,inhibition at 1 µM: 0 to 25%
"N=C(N)c1ccc2c(F)c(C(=O)O)n(Cc3cccc4ccccc34)c2c1 [Compound I-577, 6-carbamimidoyl-3-fluoro-1-(naphthalen-1-ylmethyl)-1H-indole-2-carboxylic Acid]",50 to 75,,
CNC(=O)c1cc2ccc(C(=N)N)cc2n1Cc1cc(Oc2ncccn2)cc2ccccc12 [Compound I-578],75 to 100,,
CCOC(=O)c1cc2ccc(C(=N)NC(=O)Oc3ccccc3)cc2n1Cc1cc(Oc2ccsc2)cc2ccccc12 [Compound I-579],,,inhibition at 1 µM: 0 to 25%
"CC(N)c1ccc2cc(C(=O)N[C@H]3CC[C@H](N)CC3)n(Cc3cccc4ccccc34)c2c1 (stereo partly shown) [Compound I-580, N-((1r,4r)-4-aminocyclohexyl)-6-(1-aminoethyl)-1-(naphthalen-1-ylmethyl)-1H-indole-2-carboxamide]",0 to 25,,
CC(C)COC(=O)NC(=N)c1ccc2cc(C(=O)OCc3ccccc3)n(Cc3cc(Oc4ncccn4)cc4ccccc34)c2c1 [Compound I-581],25 to 50,,
N=C(N)c1ccc2cc(C(=O)NCCO)n(Cc3cc(Oc4ncccn4)cc4ccccc34)c2c1 [Compound I-582],75 to 100,,
COC(=O)NCCOC(=O)c1cc2ccc(C(=N)N)cc2n1Cc1cc(Oc2ncccn2)cc2ccccc12 [Compound I-583],75 to 100,,
Cn1nc(C(F)(F)F)c(C=O)c1Oc1cc(Cn2c(C(=O)O)cc3ccc(C(=N)N)cc32)c2ccccc2c1 [Compound I-584],0 to 25,,
N=C(N)c1ccc2cc(C(=O)O)n(Cc3cc(S(=O)(=O)Nc4ccccc4)cc4ccccc34)c2c1 [Compound I-585],50 to 75,,
CCOC(=O)c1cc2ccc(C(=N)NC(=O)OCC(C)C)cc2n1Cc1cc(Oc2ccsc2)cc2ccccc12 [Compound I-586],25 to 50,,
COC(=O)NCCNC(=O)c1cc2ccc(C(=N)N)cc2n1Cc1cccc2ccccc12 [Compound I-587],75 to 100,,
N=C(N)c1ccc2[nH]c(C(=O)O)c(Cc3cc(Oc4ccccc4)cc4ccccc34)c2c1 [Compound I-588],25 to 50,,
N=C(N)c1ccc2cc(C(=O)O)n(Cc3cc(Oc4nccs4)cc4ccccc34)c2c1 [Compound I-589],75 to 100,,
CN1CCC(CNC(=O)c2cc3ccc(C(=N)N)cc3n2Cc2cc(Oc3ncccn3)cc3ccccc23)CC1 [Compound I-590],75 to 100,,
Cc1c(C(=O)N[C@H]2CC[C@H](N)CC2)n(Cc2cc(Oc3ncccn3)cc3ccccc23)c2cc(C(=N)N)ccc12 [Compound I-591],75 to 100,,
CCOC(=O)c1cc2ccc(C(=N)N)cc2n1Cc1cc(Oc2ccsc2)cc2ccccc12 [Compound I-592],0 to 25,,
N=C(N)c1ccc2cc(C(=O)NC3CCNCC3F)n(Cc3cccc4ccccc34)c2c1 (stereo not shown) [Compound I-593],75 to 100,,
CN1CCC(NC(=O)c2cc3ccc(C(=N)N)cc3n2Cc2cc(Oc3ncccn3)cc3ccccc23)CC1 [Compound I-594],75 to 100,,
CC(C)COC(=O)NC(=N)c1ccc2cc(C(=O)O)n(Cc3cc(Oc4ncccn4)cc4ccccc34)c2c1 [Compound I-595],25 to 50,,
N=C(N)c1ccc2cc(C(=O)OCc3ccccc3)n(Cc3cc(Oc4ncccn4)cc4ccccc34)c2c1 [Compound I-596],25 to 50,,
N=C(N)c1ccc2cc(C(=O)OCCNC(N)=O)n(Cc3cccc4ccccc34)c2c1 [Compound I-597],,75 to 100,
"CCOC(=O)c1cc2ccc(C(=N)N)cc2n1Cc1cc(Oc2ncccn2)cc2ccccc12 [Compound I-598, Ethyl 6-carbamimidoyl-1-((3-(pyrimidin-2-yloxy)naphthalen-1-yl)methyl)-1H-indole-2-carboxylate]",,75 to 100,

SMILES,"inhibition at 1 µM (1 uM compound, Assay Used = B) [%]",inhibition at 1 µM [1] [%],further results
N=C(N)c1ccc2cc(C(=O)N[C@H]3CC[C@H](N)CC3)n(Cc3cc(Oc4ccccn4)cc4ccccc34)c2c1 [Compound I-599],,75 to 100,
N=C(N)c1ccc2cc(C(=O)NCCO)n(Cc3cccc4ccccc34)c2c1 [Compound I-600],,75 to 100,
CCOC(=O)c1cc2ccc(C(=N)N)cc2n1Cc1cccc2ccccc12 [Compound I-601],,50 to 75,
COC(=O)NCCOC(=O)c1cc2ccc(C(=N)N)cc2n1Cc1cccc2ccccc12 [Compound I-602],,50 to 75,
"CC(C)(C)OC(=O)Nc1cc2ccc(C(=N)N)cc2n1Cc1cc(S(=O)(=O)c2ccccc2)cc2ccccc12 [Compound I-603, tert-butyl (6-carbamimidoyl-1-((3-(phenylsulfonyl)naphthalen-1-yl)methyl)-1H-indol-2-yl)carbamate]",,25 to 50,
N=C(N)c1ccc2cc(C(=O)NCC3(CN)CCCCC3)n(Cc3cccc4ccccc34)c2c1 [Compound I-604],,75 to 100,
NCc1ccc2cc(C(=O)N[C@H]3CC[C@H](N)CC3)n(Cc3cc(Oc4ncccn4)cc4ccccc34)c2c1 [Compound I-605],,50 to 75,
Cn1c(C(=O)O)c(Cc2cc(Oc3ccccc3)cc3ccccc23)c2cc(C(=N)N)ccc21 [Compound I-606],,25 to 50,
CCOC(=O)c1cc2ccc(C(=N)NC(=O)OCC(C)C)cc2n1Cc1cc(Oc2ncccn2)cc2ccccc12 [Compound I-607],,0 to 25,
N=C(N)c1ccc2cc(C(=O)N[C@H]3CC[C@H](N)CC3)n(Cc3cc(OS(=O)(=O)c4ccccc4)cc4ccccc34)c2c1 [Compound I-608],,75 to 100,
CNC(=O)c1cc2ccc(C(=N)N)cc2n1Cc1cccc2ccccc12 [Compound I-609],,50 to 75,
N=C(N)c1ccc2cc(C(=O)O)n(Cc3cc(Oc4cccnn4)cc4ccccc34)c2c1 [Compound I-610],,25 to 50,
N=C(N)c1ccc2cc(C(=O)OCCO)n(Cc3cccc4ccccc34)c2c1 [Compound I-611],,50 to 75,
Cc1ccc(S(=O)(=O)Oc2cc(Cn3c(C(=O)N[C@H]4CC[C@H](N)CC4)cc4ccc(C(=N)N)cc43)c3ccccc3c2)cc1 [Compound I-614],,75 to 100,
N=C(N)c1ccc2cc(C(=O)N[C@H]3CC[C@H](N)CC3)n(Cc3cc(Oc4ccccc4F)cc4ccccc34)c2c1 [Compound I-615],,75 to 100,
CC1(O)CCC(OC(=O)c2cc3ccc(C(=N)N)cc3n2Cc2cc(Oc3ccccc3)cc3ccccc23)CC1 (stereo not shown) [Compound I-617],,0 to 25,
N=C(N)c1ccc2cc(C(=O)O)n(Cc3cc(Oc4ccncn4)cc4ccccc34)c2c1 [Compound I-618],,50 to 75,
N=C(N)c1ccc2c(CO)c(C(=O)N[C@H]3CC[C@H](N)CC3)n(Cc3cccc4ccccc34)c2c1 [Compound I-619],,,Mar-2 % inhibition at 1 uM [1]: A (A represents 0%≤I≤25%)
"N=C(N)Nc1ccc2cc(C(=O)N[C@H]3CC[C@H](N)CC3)n(Cc3cccc4ccccc34)c2c1 [Compound I-620, N-((1r,4r)-4-aminocyclohexyl)-6-guanidino-1-(naphthalen-1-ylmethyl)-1H-indole-2-carboxamide]",,0 to 25,
N=C(N)c1ccc2cc(C(=O)O)n(Cc3cc(OS(=O)(=O)c4ccccc4)cc4ccccc34)c2c1 [Compound I-621],,75 to 100,
CC(C)COC(=O)NC(=N)c1ccc2cc(C(=O)O)n(Cc3cc(Oc4ccccc4)cc4ccccc34)c2c1 [Compound I-622],,0 to 25,
CS(=O)(=O)Oc1cc(Cn2c(C(=O)O)cc3ccc(C(=N)N)cc32)c2ccccc2c1 [Compound I-623],,50 to 75,
CN(C)C(=O)c1cc2ccc(C(=N)N)cc2n1Cc1cccc2ccccc12 [Compound I-624],,25 to 50,
N=C(N)c1ccc2cc(C(=O)O)n(Cc3cc(Oc4cnccn4)cc4ccccc34)c2c1 [Compound I-625],,50 to 75,
N=C(N)c1ccc2cc(C(=O)O)n(Cc3cc(Oc4cccnc4)cc4ccccc34)c2c1 [Compound I-626],,25 to 50,
CCOC(=O)c1cc2ccc(C(=N)NC(=O)OCC(C)C)cc2n1Cc1cc(Oc2ccccc2)cc2ccccc12 [Compound I-627],,0 to 25,
